# Test system: mouse peritoneal macrophages
# Experiment: Mouse i.p. injection of LPS and ERG240, peritoneal macrophages analysed
# Assay type: in vivo, C57BL/6 mice
# Procedure: Figure 4 Bcat1 inhibition blocks itaconate production in vivo and polarizes peritoneal macrophages. Mouse peritoneal macrophages from vehicle (saline), LPS-injected (1.5 mg kg^−1) or LPS+ERG240 (500 mg kg^−1)–injected mice were isolated and pooled 24 h following i.p. injection (n=6 mice per group). Irg1 protein (a), mRNA (b) levels, as well as itaconate measurements by GC/MS (c) are shown. […] Peritoneal macrophages were collected 24 h following the LPS injection. n=3 mice/group. (d) Protein–protein interaction (PPI) network in 100 top (97 annotated) differentially expressed genes between LPS and LPS+ERG240 treated mouse peritoneal macrophages illustrated by STRING (high confidence score=0.7). The IFN-inducible GTPase cluster is shown within a dashed circle. (e) Distribution of the fold changes and the FDR-adjusted P values (−log10 (FDR)) for the comparison between LPS and LPS+ERG240 treated macrophages. The IFN- inducible GTPase genes, M1-like, M2-like and extracellular matrix transcripts are shown in blue. (f) Fragments per kilobase of transcript per Million mapped reads (FPKM) values for Nos2, Il6 are shown in vehicle, LPS and LPS+ERG240-treated peritoneal macrophages. (g) FPKM values for Ifit1, Ifit2, Ifit3, Gbp1, Gbp2, Gbp4, Gbp7, Mrc1, Klf4, Cd36, Fn1, Mmp9, Gsn and Spp1. FPKM=1 is shown as a dashed line to denote minimal expression levels. All transcripts analysed by RNA-seq (f,g) show significant FPKM upon ERG240 treatment when compared to LPS group (FDR<10^−73). Error bars are s.e.m. Significance was tested using one-way ANOVA. *P<0.05 by ANOVA.
# The procedure was performed by Washington Biotechnology Inc. (Baltimore, MD). […] Same dose of ERG240 was administered a second time, 8 h following the first injection of LPS. Peritoneal macrophages were harvested 24 h after the LPS injection and results from three groups (vehicle, LPS only, LPS+ERG240; n=6 mice in each group) were analysed in terms of IRG1 and itaconate level measurements.
# For itaconate, cells pellets containing 1.5 × 10^6 hMDMs were quenched with 400 μl of methanol, previously chilled at −20 °C. After addition of 400 μl of cold (4 °C) ultrapure water, cell pellets were vortexed briefly and then allowed to stand for 10 min on ice. Following addition of 400 μl of GC/MS grade dichloromethane, previously chilled at −20 °C, samples were vortexed again and centrifuged at 14,000g for 10 min at 4 °C. The aqueous layer of the samples was collected and lyophilized. Dried materials were dissolved in 40 μl of MOX solution, which is prepared by allowing 20 mg of methoxamine HCl (Sigma Aldrich) to dissolve in 500 μl pyridine for 30 min at room temperature. Metabolites dissolved in MOX were incubated at 45 °C for 60 min, derivatized by adding 60 μl of N-methyl-N-(trimethylsilyl) trifluoroacetamide (MSFTA, Mecherey-Nagel) and incubated at 45 °C for 30 min. After a brief centrifugation, derivatized metabolites were transferred into clean GC/MS vials and analysed for the presence of itaconic acid (itaconate) using a 7890A GC System (Agilent Technologies) equipped with an Agilent J&W DB-5ms column (30 m, 0.25 mm, 0.25 μm), connected to an 5975C Triple-Axis MS Detector (Agilent Technologies) and outfitted with an autosampler. The MS source was held at 230 °C and the quadrupole at 150 °C. The GC oven temperature was held at 50 °C for 5 min, increased to 240 °C at a rate of 10 °C min^−1, held at 240 °C for 5 min and increased to 300 °C at a rate of 10 °C min^−1. A volume of 1 μl was injected in the system in a 1:3 split mode. The amount of itaconate present in the sample was determined after peak integration. For citrate, the frozen cell pellets were re-suspended in ice-cold ethanol-phosphate buffer. Cells were lysed by three freeze-thaw cycles and sonication. Samples were centrifuged and the supernatant was used for further analysis. […]
# [1] = LPS 1.5 mg kg^−1 + ERG240 500 mg kg^−1 i.p., 24 h
# [2] = LPS+ERG240 vs LPS, peritoneal macrophages, 24 h
smiles,measurement,setting,value
CC(=O)C(C)CCC(=O)O (stereo not drawn) [ERG240],"itaconate in peritoneal macrophages, sequential treatment","ERG240 administered 3 h after the first LPS injection, collected 24 h",equally decreased
same,"Il6, Gbp4 expression levels, sequential treatment","ERG240 administered following 3 hours of LPS, qRT-PCR",inhibitory effect
same,Irg1 mRNA and protein levels in peritoneal macrophages,[1],reduction
same,itaconate in peritoneal macrophages,[1],significant decrease
same,"IFN-inducible GTPase signature genes and M1-like markers (Nos2, Il6), RNA-seq",[2],down-regulated
same,"M2-like and extracellular matrix transcripts, RNA-seq",[2],up-regulated

# Source: paper PMC5510229, “BCAT1 controls metabolic reprogramming in activated human macrophages and is associated with inflammatory diseases” (Nature Communications, 2017)
